According to patent US6916815B2, “C-6 modified indazolylpyrrolotriazines” (Bristol-Myers Squibb Company, priority 2002, dated 2005):
Counter-ions that a name gives are not always drawn.

melting point: > 300 °C
SMILES: CCc1c(NC(=O)OC[C@@H]2COCCN2)cn2ncnc(Nc3ccc4c(cnn4Cc4ccccc4)c3)c12 (as salt: hydrochloride) [Example 1, [5-ethyl-4-[[(1-phenylmethyl)-1H-indazol-5-yl]amino]pyrrolo[2,1-f][1,2,4]triazin-6-yl]-carbamic acid, (3S)-3-morpholinylmethyl ester]
